Laboratory results from paper PMC9209526 (Nature Communications, 2022).

Target: T1, N4posG321V (Abl kinase domain hinge mutant) (Homo sapiens, UniProt P00519, G321V)
T1 construct: His10-TEV (N, cleaved yes); made in house; host or cells: E. coli BL21(DE3)pLysS, co-expressed with YopH phosphatase
T1 sequence (P00519 229-512 G321V): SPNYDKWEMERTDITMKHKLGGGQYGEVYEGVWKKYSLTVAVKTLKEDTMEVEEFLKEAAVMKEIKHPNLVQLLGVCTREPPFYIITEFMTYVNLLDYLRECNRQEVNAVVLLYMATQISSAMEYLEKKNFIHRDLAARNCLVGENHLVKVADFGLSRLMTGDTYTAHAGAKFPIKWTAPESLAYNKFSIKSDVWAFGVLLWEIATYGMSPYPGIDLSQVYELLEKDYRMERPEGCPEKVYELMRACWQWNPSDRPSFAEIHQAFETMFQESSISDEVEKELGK
Assay: ClyA-AS nanopore tweezers single-channel current recording: ligand binding to N4posG321V
Settings: 1 mM ATP or ATPγS with 10 mM MgCl2; -80 mV

Compound: Nc1ncnc2c1ncn2[C@@H]1O[C@H](CO[P@](=O)(O)O[P@](=O)(O)O[P@@](=O)(O)S)[C@@H](O)[C@H]1O [ATPγS]
- effect on N4posG321V current trace: did not trigger any change in the current trace
